Assay results taken from EP0139983A1, “Crystalline salts of L or (S)-3-(3,4-dihydroxyphenyl)-2-methylalanine esters and process” (Merck & Co., Inc., priority 1983, dated 1985).
Structures can show the parent of a compound that is named as a salt. Where two headings read alike, the source gives them in different places.

Experiments:
[1] = Solubility in aqueous media; assay type: physicochemical; conditions: salt solubility is system dependent (amount of salt present, relative amount of (R) and (S) salts)
[2] = Stability (aqueous environment, mechanical stress, heat and compression); assay type: physicochemical; conditions: subjected to an aqueous environment or to mechanical stress such as grinding

solubility [1]	SMILES	further results
57 to 197 grams per liter	CC(OC(=O)C(C)(C)C)OC(=O)C(C)(N)Cc1ccc(O)c(O)c1 (mixture of isomers) [solvated phosphate salt mixture of (R,S)-POE ester of methyl]	
	C[C@](N)(Cc1ccc(O)c(O)c1)C(=O)O (single isomer, unassigned) [methyldopa, L or (S)-3-(3,4-dihydroxyphenyl)-2-methylalanine]	solubility ([1]; read-out: solubility): 10000 µg/mL
	CC(OC(=O)C(C)(C)C)OC(=O)[C@@](C)(N)Cc1ccc(O)c(O)c1 (stereo partly drawn) [POE ester bases, (R,S)-l-pivaloyloxyethyl (S)-3-(3,4-dihydroxyphenyl)-2-methylalaninate]	stability [2]: tend to be unstable
156 to 383 grams per liter	CC(OC(=O)C(C)(C)C)OC(=O)C(C)(N)Cc1ccc(O)c(O)c1 (stereo not shown) [solvated tartaric acid salt mixture]	
